Values quoted from earlier work in patent publication US20080132534A1, “Pharmaceutical composition comprising a macrolide immunomodulator” (priority 2003, published 2008).

Test system: allogeneic kidney transplantation
Conditions: rat, oral administration, suppression of systemic immune response

## C=CC[C@@H]1/C=C(\C)C[C@H](C)C[C@H](OC)[C@H]2O[C@@](O)(C(=O)C(=O)N3CCCC[C@H]3C(=O)O[C@H](/C(C)=C/[C@@H]3CC[C@@H](O)[C@H](OC)C3)[C@H](C)[C@@H](O)CC1=O)[C@H](C)C[C@@H]2OC [tacrolimus]
  minimum effective dose (MED): 14 mg/kg
